Test results published in patent US5001064A, “Phosphatidylinositol 4-kinase” (Washington University, priority 1988, dated 1991).
Where “and” joins values, the source holds several entries; their conditions need not be identical. Equal entries are not always repeated. Entries after “also recorded” stand apart in the source; their conditions may differ. Where two headings read alike, the source gives them in different places.

Experiments:
PtdIns 4-kinase [1] = target: T1, PtdIns 4-kinase (Bos taurus, UniProt A6QLN5); test: PtdIns 4-kinase activity assay: kinetic parameters, specific activity, pH optimum; type: biochemical, bovine; details: for Km: assuming a molecular weight of 835.2 for PtdIns, read-out: apparent Km for PtdIns
T1 construct: It constitutes the major PtdIns 4-kinase activity of bovine uteri; from tissue; host or cells: bovine uterus (acetone powder, purified over ammonium sulfate, Mono Q, S-Sepharose, Mono Q, Mono P and hydroxylapatite)
Protocol: (§1) PtdIns 4-kinase activity was assayed in 60 μl at 30° C. in 20 mM BisTris-HCl (pH 7.0), 10 mM MgCl2, 1.0% Triton X-100, 0.25 mg/ml phosphatidylinositol, and 150 μM ATP (1.25 μCi[-^32 P]ATP), unless otherwise noted. The reaction was terminated by the addition of 12 μl of cold HCl, 120 μl of cold methanol, 150 μl of chloroform, and 40 μl of H2 O. The extracted samples were centrifuged at 12,000 × g for 1 min. and the aqueous layer removed and discarded. When needed, the organic phase was washed with 40 μl of cold methanol and 40 μl of cold 1.0 N HCl, centrifuged at 12,000 × g, and the aqueous layer was removed. The organic phase was then dried under vacuum in a Savant speed-vac, resuspended in 40 μl of chloroform/methanol (2:1), and chromatographed on potassium oxalate-impregnated Silica Gel 60 thin layer chromatography plates (TLC). The solvent system used consisted of chloroform/methanol/ammonium hydroxide/water (51:39.6:3:8.4). For two-dimensional thin layer chromatography, the preceding solvent system was used for the first dimension, and chloroform/methanol/acetic acid/water (50:39:1:10) was used for the second dimension. Standards were visualized by exposing the TLC plate to iodine vapor. The reaction product, phosphatidylinositol 4-phosphate, was visualized by autoradiography, and the corresponding area of the TLC plate was scraped and quantitated by Cherenkov counting. This assay was linear with respect to both protein concentration and time. For tests utilizing [^3 H]PtdIns, the corresponding areas of the TLC plates were scraped and the silica powder was suspended in a gel of Aquasol/H2 O (4:1) before counting. All assays (except column fractions) were done in duplicate or triplicate.
The purified PtdIns 4-kinase was used to determine the kinetic parameters of this enzyme for ATP and PtdIns. Optimal enzymatic activity was found at concentrations of ATP above 100 μM. […] In order to avoid potential effects on enzymatic activity due to changes in the Triton X-100/PtdIns micelles used as substrate, a constant molar ratio of Triton X-100 to PtdIns was used, and the concentration of Triton X-100 was maintained above its critical micellar concentration. […] The different Vmax values may be explained by the fact that the ATP substrate saturation curve was performed at a pH of 7.4 rather than 7.0.
In order to optimize the assay of this enzyme, the pH optimum for Ptdlns 4-kinase was determined. This enzyme was optimally active in the pH range of 6.0-7.0 (FIG. 4). Above a pH of 7.0 and below a pH of 6.0 the activity of this enzyme decreased sharply.

PtdIns 4-kinase [2] = target: T1, PtdIns 4-kinase; test: Specificity of PtdIns 4-kinase for a nucleotide phosphoryl donor ([3H]PtdIns as substrate); type: biochemical, bovine
Protocol: as §1, with “This assay was linear with respect to both protein concentration and time.” left out

PtdIns 4-kinase [3] = target: T1, PtdIns 4-kinase; test: Influence of divalent cations (Mg2+, Ca2+) on PtdIns 4-kinase activity; type: biochemical, bovine
Protocol: as §1, with “The” for “PtdIns 4-kinase activity was assayed in 60 μl at 30° C. in 20 mM BisTris-HCl (pH 7.0), 10 mM MgCl2, 1.0% Triton X-100, 0.25 mg/ml phosphatidylinositol, and 150 μM ATP (1.25 μCi[-^32 P]ATP), unless otherwise noted. The”, “The solvent system used consisted of chloroform/methanol/ammonium hydroxide/water (51:39.6:3:8.4).” left out, “This assay was linear with respect to both protein concentration and time.” left out

[4] = test system: PtdIns 4-kinase/PtdIns-4-P 5-kinase purified from bovine brain myelin; details: Saltiel et al., Biochem. J. 241, 759-763 (1987); cited from earlier work
[5] = nonlinear regression, Hill equation

T1 sequence (A6QLN5 1-479): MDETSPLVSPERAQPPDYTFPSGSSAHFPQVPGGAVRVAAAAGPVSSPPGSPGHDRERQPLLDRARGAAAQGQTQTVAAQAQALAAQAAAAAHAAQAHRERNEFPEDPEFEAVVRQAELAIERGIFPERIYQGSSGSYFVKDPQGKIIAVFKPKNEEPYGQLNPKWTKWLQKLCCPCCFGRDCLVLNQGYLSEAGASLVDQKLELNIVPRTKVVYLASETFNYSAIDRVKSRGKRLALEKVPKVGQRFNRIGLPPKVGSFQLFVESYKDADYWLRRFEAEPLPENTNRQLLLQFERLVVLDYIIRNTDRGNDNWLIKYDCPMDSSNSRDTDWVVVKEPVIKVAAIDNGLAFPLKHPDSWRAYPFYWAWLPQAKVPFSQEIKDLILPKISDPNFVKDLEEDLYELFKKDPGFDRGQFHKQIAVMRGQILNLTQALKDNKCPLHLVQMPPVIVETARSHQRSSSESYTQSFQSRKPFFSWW

Nc1ncnc2c1ncn2[C@@H]1O[C@H](COP(=O)(O)OP(=O)(O)OP(=O)(O)O)[C@@H](O)[C@H]1O [ATP]
ATP concentration for optimal enzymatic activity (PtdIns 4-kinase [1]; FIG. 3A): above 100 μM
Vmax, ATP concentration varied (PtdIns 4-kinase [1]; pH 7.4): 2.2 µmol/mg/min
utilization as phosphoryl donor (words) (PtdIns 4-kinase [2]; [3H]PtdIns as substrate): utilized; also recorded: will utilize
activity at 150 µM (PtdIns 4-kinase [2]; read-out: Relative activity with nucleotide donor): 100%

[Ca+2] [Ca^2+]
IC50 (PtdIns 4-kinase [3]; 100 μM ATP, 100 μM EGTA, FIG. 6, read-out: free Ca2+ concentration giving 50% inhibition): ~300 µM

[Mg+2] [Mg^2+]
Hill coefficient of Mg2+ dependence (PtdIns 4-kinase [3]; [5]): 1.9
Ks of Mg2+ dependence (PtdIns 4-kinase [3]; [5]): 0.36

phosphatidylinositol [PtdIns]
Km [4]: 400 µM
PtdIns concentration for saturation of enzyme activity (PtdIns 4-kinase [1]; FIG. 3B): above 0.2 mg/ml
Km (PtdIns 4-kinase [1]; listed as phosphatidylinositol (PtdIns)): ~26 µM
Km (PtdIns 4-kinase [1]): 26 µM and ~26 µM
Vmax, PtdIns concentration varied (PtdIns 4-kinase [1]; pH 7.0): 3.3 µmol/mg/min
apparent Km for PtdIns (PtdIns 4-kinase [1]; purified enzyme, pH 7.0 (Tris-HCl), constant Triton X-100/PtdIns ratio): 22 µg/mL
